# Tests used:
# MT-4 cells = assay: Cytotoxicity assay; format: cell-based; details: for cytotoxicity (in words): text: toward HepG2 cells, table head and method say MT-4
# HBV [1] = assay: Anti-HBV assay in HepG2 2.2.15 cells; format: cell-based; details: for EC50: Hepatitis B virus, HepG2 2.2.15, 144 h, read-out: EC50 anti-HBV activity
# HBV [2] = details: relative to entecavir 1; ref 3a; cited from earlier work
Molecule,cytotoxicity (in words) (MT-4 cells),EC50 (HBV [1]) [nM],also measured
9-[Bis-O-(pivaloyoxymethyl)phosphorylmethoxy]allyl]guanine [Compound 8],cytotoxicity toward HepG2 cells was also observed,–,–
"C=C(CCO)Cn1cnc2c(=O)[nH]c(N)nc21 [Compound 6, 2-Amino-9-(4-hydroxy-2-methylenebutyl)-1H-purin-6(9H)-one]",nor display any cytotoxicity,> 1000,anti-HBV activity (in words) (HBV [1]; HepG2 2.2.15 cells): neither exhibit anti-HBV activity
"C=C1[C@H](CO)[C@@H](O)C[C@@H]1n1cnc2c(=O)[nH]c(N)nc21 [Entecavir, entecavir, reference compound]",–,0.77,–
Nc1nc2c(ncn2[C@H]2C[C@@H](CO)[C@H](O)C2)c(=O)[nH]1 [carbocyclic dG],–,–,"potency, times less than that of entecavir (1) (HBV [2]): 10 times"
"CC(C)(C)C(=O)O [pivalic acid, reference compound]",–,–,concentration up to which no cytotoxicity was shown (MT-4 cells; in this assay system): > 100 µM

# Reference: publication PMC7712530 (Nucleosides, nucleotides & nucleic acids, 2015)
